Measured values: ChEMBL document CHEMBL5260810, “Inhibition of bromodomain-containing protein 9 for the prevention of epigenetically-defined drug resistance” (Bioorg Med Chem Lett, 2017)

Key:
COLO-678 = assay: Cytotoxicity against human COLO-678 cells measured after 8 days; format: functional, cell-based; conditions: COLO-678, 192 h
NCI-H1666 = assay: Cytotoxicity against human NCI-H1666 cells measured after 8 days; format: functional, cell-based; conditions: NCI-H1666, 192 h
[1] = molecular target: Histone acetyltransferase KAT2B (Homo sapiens, UniProt Q92831); assay: Binding affinity to human partial length PCAF (G715 to D831 residues) expressed in bacterial expression system by BROMOscan assay
Raji = assay: Cytotoxicity against human Raji cells measured after 8 days; format: functional, cell-based; conditions: 192 h
[2] = molecular target: Histone acetyltransferase KAT2A (Homo sapiens, UniProt Q92830); assay: Binding affinity to human partial length GCN5L2 (E726 to K837 residues) expressed in bacterial expression system by BROMOscan assay
[3] = molecular target: Tyrosine-protein kinase Yes (Homo sapiens) (UniProt P07947); assay: Inhibition of Yes (unknown origin) at 1 uM relative to control
Rattus norvegicus = species on record: Rattus norvegicus; assay: Displacement of [3H]flunitrazepam from rat brain central BZD at 10 uM after 60 mins by radioligand binding assay relative to control
NCI-H1703 = assay: Cytotoxicity against human NCI-H1703 cells measured after 8 days; format: functional, cell-based; conditions: NCI-H1703, 192 h
MDA-MB-436 = assay: Cytotoxicity against human MDA-MB-436 cells measured after 8 days; format: functional, cell-based; conditions: MDA-MB-436, 192 h
[4] = Cytotoxicity against human OVCAR433 cells measured after 8 days; format: functional, cell-based; conditions: OVCAR433, 192 h
[5] = molecular target: Serine/threonine-protein kinase SIK2 (Homo sapiens) (UniProt Q9H0K1); assay: Inhibition of SIK2 (unknown origin) at 1 uM relative to control
LP-1 = assay: Cytotoxicity against human LP-1 cells measured after 8 days; format: functional, cell-based; conditions: LP-1, 192 h
WiDr = assay: Cytotoxicity against human WiDr cells measured after 8 days; format: functional, cell-based; conditions: 192 h
LS-1034 = assay: Cytotoxicity against human LS1034 cells measured after 8 days; format: functional, cell-based; conditions: LS-1034, 192 h
[6] = Cytotoxicity against human KPL-4 cells measured after 8 days; format: functional, cell-based; conditions: KPL4, 192 h
SUD4 = assay: Cytotoxicity against human SU-DHL-4 cells measured after 8 days; format: functional, cell-based; conditions: SU-DHL-4, 192 h
LNCaP = assay: Cytotoxicity against human LNCaP clone FGC cells measured after 8 days; format: functional, cell-based; conditions: 192 h
[7] = molecular target: T1, Endothelin-1 receptor (Homo sapiens) (UniProt P25101); assay: Displacement of [125I]-endothelin-1 from human recombinant ETA receptor at 10 uM after 120 mins by scintillation counting analysis relative to control
T1 sequence (whole entry): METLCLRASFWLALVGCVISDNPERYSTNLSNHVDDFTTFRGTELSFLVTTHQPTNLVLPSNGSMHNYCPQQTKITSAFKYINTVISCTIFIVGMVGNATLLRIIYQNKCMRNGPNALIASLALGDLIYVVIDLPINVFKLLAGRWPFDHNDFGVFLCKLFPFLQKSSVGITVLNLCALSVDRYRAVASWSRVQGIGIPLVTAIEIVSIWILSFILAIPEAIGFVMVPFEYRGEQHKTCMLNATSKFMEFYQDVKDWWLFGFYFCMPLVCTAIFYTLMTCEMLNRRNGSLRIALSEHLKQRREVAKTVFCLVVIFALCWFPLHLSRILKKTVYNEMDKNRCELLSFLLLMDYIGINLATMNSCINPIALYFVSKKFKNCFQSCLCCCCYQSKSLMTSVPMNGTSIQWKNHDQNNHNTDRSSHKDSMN

IGROV-1 = assay: Cytotoxicity against human IGROV-1 cells measured after 8 days; format: functional, cell-based; conditions: IGROV-1, 192 h
[8] = molecular target: T2, Bromodomain and PHD finger-containing protein 3 (Homo sapiens, UniProt Q9ULD4); assay: Binding affinity to human partial length BRPF3 (E588 to G701 residues) expressed in bacterial expression system by BROMOscan assay
T2 sequence (Q9ULD4 whole entry): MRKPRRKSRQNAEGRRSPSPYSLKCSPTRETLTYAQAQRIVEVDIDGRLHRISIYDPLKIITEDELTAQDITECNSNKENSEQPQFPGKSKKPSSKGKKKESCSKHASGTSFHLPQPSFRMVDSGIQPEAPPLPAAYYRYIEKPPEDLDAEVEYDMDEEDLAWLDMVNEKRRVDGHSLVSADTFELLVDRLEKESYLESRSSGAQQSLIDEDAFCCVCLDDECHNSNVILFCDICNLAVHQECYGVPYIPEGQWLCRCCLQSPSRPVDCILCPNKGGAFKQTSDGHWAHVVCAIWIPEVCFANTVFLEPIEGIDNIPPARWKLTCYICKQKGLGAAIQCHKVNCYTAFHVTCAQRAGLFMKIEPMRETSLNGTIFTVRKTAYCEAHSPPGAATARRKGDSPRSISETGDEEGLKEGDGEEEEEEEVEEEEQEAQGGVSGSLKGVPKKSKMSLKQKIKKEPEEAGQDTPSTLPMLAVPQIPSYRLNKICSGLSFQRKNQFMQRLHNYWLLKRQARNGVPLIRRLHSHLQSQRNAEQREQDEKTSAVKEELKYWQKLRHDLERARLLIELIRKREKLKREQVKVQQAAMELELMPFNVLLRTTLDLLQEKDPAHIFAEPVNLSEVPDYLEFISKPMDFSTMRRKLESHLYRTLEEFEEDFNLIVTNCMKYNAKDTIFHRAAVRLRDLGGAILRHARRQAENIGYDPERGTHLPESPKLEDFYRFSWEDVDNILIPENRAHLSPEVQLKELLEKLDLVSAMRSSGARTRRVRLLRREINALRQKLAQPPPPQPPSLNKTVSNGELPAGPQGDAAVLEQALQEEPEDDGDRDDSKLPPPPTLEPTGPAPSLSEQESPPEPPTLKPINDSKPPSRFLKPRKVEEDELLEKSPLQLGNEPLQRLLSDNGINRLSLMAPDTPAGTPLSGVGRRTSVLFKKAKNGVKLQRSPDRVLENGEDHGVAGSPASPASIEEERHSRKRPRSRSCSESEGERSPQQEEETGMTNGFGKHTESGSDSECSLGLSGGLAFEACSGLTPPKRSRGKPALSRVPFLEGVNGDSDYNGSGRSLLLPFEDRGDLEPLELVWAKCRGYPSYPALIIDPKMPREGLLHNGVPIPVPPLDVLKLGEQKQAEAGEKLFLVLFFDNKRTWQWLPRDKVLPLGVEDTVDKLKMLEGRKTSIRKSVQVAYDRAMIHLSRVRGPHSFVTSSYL

NCI-H727 = assay: Cytotoxicity against human NCI-H727 cells measured after 8 days; format: functional, cell-based; conditions: NCI-H727, 192 h
[9] = molecular target: SWI/SNF-related matrix-associated actin-dependent regulator of chromatin subfamily A member 2 (Homo sapiens, UniProt P51531); assay: Binding affinity to human partial length SMARCA2 (S1377 to Q1486 residues) expressed in bacterial expression system by BROMOscan assay
[10] = molecular target: Bromodomain-containing protein 2 (Homo sapiens, UniProt P25440); assay: Binding affinity to human partial length BRD2 bromodomain 1 long isoform (K71 to N194 residues) expressed in bacterial expression system by BROMOscan assay
Chain of Bromodomain-containing protein 2 (P25440 whole entry, the tested form may be a part, canonical isoform): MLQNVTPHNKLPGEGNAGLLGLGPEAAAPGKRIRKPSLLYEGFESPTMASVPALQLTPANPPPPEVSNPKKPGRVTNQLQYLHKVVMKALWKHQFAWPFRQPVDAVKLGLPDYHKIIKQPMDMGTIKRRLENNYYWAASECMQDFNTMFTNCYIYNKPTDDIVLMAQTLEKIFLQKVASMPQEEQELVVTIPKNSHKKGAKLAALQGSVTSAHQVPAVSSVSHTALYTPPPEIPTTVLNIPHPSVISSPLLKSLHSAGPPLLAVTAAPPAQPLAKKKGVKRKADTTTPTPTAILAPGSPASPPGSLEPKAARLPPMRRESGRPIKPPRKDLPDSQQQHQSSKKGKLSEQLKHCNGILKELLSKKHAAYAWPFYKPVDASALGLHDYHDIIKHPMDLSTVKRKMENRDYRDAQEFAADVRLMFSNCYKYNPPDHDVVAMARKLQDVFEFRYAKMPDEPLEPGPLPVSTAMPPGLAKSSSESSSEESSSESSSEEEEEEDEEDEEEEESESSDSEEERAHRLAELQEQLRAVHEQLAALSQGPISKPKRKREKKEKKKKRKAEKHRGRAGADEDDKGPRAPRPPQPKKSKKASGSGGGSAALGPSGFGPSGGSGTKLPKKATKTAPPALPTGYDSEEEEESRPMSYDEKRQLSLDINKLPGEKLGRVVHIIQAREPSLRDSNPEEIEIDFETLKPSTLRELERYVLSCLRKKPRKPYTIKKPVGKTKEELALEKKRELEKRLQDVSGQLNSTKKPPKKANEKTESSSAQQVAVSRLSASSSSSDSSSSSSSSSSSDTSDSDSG

Chain of Serine/threonine-protein kinase SIK2 (Homo sapiens) (Q9H0K1 whole entry, looked up): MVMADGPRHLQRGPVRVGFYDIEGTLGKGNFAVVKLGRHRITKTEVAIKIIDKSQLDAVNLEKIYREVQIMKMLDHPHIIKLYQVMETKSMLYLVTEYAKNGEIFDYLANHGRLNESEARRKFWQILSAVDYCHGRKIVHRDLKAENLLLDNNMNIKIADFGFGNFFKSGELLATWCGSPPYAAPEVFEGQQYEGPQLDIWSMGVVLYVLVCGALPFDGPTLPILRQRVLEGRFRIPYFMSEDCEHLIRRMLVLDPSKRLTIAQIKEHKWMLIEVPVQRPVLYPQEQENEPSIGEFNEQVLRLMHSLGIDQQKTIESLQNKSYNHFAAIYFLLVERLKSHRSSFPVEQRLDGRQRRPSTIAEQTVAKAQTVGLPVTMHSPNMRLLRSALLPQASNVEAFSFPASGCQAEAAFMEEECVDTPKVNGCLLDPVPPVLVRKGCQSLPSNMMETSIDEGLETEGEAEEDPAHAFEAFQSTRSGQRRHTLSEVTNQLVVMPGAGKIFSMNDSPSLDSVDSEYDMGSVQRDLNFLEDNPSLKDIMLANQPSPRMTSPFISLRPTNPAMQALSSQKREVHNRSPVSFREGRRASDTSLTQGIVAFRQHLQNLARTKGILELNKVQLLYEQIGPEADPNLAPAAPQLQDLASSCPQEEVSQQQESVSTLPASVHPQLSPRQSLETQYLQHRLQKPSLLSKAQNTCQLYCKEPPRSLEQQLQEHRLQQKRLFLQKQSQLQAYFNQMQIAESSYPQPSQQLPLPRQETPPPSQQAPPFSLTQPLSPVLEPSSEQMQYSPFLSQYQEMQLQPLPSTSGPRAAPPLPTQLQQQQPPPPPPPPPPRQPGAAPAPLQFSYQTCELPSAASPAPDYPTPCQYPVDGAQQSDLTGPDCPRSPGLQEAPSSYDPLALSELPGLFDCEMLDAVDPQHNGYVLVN
Chain of SWI/SNF-related matrix-associated actin-dependent regulator of chromatin subfamily A member 2 (P51531 whole entry, the tested form may be a part, canonical isoform): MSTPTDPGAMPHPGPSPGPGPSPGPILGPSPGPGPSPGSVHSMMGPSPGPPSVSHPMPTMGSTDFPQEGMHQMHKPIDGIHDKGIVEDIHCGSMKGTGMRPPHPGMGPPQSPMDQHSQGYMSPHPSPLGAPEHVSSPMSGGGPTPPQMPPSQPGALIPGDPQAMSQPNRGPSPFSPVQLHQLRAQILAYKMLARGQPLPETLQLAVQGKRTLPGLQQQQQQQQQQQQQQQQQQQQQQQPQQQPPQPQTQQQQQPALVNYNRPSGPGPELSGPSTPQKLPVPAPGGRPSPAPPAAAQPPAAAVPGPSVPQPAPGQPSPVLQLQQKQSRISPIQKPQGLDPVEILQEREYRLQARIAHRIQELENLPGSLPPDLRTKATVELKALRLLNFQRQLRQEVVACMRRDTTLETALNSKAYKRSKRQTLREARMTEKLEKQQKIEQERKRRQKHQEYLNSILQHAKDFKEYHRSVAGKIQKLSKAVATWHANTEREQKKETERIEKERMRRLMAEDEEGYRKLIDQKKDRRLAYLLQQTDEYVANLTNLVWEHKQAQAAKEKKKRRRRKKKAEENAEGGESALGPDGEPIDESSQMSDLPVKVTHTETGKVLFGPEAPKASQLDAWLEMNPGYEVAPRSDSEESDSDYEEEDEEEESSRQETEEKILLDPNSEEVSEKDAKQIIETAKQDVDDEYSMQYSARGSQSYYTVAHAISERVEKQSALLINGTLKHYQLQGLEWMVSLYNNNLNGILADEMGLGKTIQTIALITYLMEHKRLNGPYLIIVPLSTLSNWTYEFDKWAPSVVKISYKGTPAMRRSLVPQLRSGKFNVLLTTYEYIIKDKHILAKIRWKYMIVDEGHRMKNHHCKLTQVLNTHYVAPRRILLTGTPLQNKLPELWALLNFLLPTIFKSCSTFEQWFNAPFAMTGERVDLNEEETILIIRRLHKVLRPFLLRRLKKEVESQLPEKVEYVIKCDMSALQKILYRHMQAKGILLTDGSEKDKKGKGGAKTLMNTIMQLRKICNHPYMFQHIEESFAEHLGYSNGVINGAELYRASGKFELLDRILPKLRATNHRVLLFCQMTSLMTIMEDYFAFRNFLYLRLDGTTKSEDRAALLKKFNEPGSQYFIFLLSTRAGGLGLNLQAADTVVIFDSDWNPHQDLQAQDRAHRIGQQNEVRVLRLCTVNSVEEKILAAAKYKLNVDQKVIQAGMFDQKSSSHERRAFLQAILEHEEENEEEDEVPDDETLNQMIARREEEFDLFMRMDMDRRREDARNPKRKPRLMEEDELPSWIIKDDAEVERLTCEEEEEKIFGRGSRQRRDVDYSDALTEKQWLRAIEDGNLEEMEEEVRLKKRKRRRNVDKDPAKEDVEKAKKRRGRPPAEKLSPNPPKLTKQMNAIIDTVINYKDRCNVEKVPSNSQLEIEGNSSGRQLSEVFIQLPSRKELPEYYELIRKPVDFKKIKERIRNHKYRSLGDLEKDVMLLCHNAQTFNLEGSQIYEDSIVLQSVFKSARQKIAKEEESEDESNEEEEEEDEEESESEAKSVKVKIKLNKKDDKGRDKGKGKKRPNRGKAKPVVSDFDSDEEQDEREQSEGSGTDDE
Chain of Histone acetyltransferase KAT2A (Q92830 whole entry, the tested form may be a part): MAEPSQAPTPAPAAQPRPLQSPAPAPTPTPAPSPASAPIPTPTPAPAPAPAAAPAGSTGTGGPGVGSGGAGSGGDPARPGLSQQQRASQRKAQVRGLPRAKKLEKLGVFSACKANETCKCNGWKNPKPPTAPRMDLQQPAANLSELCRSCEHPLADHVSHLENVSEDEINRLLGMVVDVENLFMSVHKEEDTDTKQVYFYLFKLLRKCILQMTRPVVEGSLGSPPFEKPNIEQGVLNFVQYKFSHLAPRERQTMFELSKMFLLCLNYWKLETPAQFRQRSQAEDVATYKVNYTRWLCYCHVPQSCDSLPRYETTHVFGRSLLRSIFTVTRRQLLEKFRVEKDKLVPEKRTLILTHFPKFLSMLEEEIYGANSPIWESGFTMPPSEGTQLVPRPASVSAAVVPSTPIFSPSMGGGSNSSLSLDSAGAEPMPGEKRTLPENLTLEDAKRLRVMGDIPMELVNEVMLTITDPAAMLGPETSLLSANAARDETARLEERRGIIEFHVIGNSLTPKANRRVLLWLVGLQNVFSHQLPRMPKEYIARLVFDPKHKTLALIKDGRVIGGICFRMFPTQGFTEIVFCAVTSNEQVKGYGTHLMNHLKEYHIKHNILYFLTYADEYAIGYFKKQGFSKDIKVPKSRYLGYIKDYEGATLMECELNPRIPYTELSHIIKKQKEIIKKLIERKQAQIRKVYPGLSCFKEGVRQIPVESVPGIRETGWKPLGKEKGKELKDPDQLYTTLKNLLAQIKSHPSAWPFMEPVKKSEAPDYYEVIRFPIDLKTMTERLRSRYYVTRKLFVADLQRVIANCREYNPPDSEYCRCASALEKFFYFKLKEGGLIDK
Chain of Histone acetyltransferase KAT2B (Q92831 whole entry, the tested form may be a part): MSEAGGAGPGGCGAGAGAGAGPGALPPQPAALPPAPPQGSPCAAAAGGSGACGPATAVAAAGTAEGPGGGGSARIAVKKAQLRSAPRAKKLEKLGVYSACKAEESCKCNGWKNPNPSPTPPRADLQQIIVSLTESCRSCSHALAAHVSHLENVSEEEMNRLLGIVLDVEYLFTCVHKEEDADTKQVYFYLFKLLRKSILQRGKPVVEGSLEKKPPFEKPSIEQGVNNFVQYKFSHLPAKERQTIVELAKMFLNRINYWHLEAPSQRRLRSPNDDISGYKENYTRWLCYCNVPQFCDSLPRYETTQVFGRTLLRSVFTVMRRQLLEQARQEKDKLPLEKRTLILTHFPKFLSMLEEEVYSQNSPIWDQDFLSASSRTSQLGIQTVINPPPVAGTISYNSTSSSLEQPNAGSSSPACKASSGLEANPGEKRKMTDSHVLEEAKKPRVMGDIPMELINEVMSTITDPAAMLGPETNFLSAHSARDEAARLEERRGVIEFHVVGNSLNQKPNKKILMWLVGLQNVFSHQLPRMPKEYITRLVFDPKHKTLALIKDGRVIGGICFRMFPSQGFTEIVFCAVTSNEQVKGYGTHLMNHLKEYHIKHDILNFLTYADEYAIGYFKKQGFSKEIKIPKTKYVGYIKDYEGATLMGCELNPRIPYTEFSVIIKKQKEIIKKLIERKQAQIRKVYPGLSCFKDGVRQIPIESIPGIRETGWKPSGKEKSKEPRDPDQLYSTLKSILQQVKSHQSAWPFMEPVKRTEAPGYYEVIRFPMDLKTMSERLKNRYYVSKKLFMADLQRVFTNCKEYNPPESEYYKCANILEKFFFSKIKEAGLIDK

SMILES | IC50 (COLO-678) [µM] | IC50 (NCI-H1666) [µM] | Kd [1] [µM] | IC50 (Raji) [µM] | Kd [2] [nM] | inhibition [3] [%] | Activity (Rattus norvegicus) [%] | IC50 (NCI-H1703) [µM] | IC50 (MDA-MB-436) [µM] | IC50 [4] [µM] | inhibition [5] [%] | IC50 (LP-1) [µM] | IC50 (WiDr) [µM] | IC50 (LS-1034) [µM] | IC50 [6] [µM] | IC50 (SUD4) [µM] | IC50 (LNCaP) [µM] | Kd [8] [µM] | Kd [9] [µM] | Kd [10] [µM] | further results
C/C=C/Cn1cc(-c2ccc(C(C)(C)O)cc2OC)c2cc[nH]c2c1=O | 20 | 20 | > 10 | 12.4 | 410 | 6 | -21 | 20 | 20 | 20 | 0.5 | 19.5 | 20 | 20 | 20 | 8.59 | 19.9 | > 10 | > 10 | 2.7 | Activity [7]: 12%; IC50 (IGROV-1): 20 µM; IC50 (NCI-H727): 20 µM
C/C=C/Cn1cc(-c2cc(OC)c(C(C)(C)O)cc2OC)c2cc(C)[nH]c2c1=O | – | – | > 10 | – | 160 | – | – | – | – | – | – | – | – | – | – | – | – | > 10 | > 10 | > 10 | –
C/C=C/Cn1cc(-c2ccc(C(=O)N3CCOCC3)cc2)c2cc[nH]c2c1=O | 20 | 19.5 | > 10 | 20 | > 10000 | 11.5 | 13 | 20 | 20 | 20 | 2.8 | 20 | 20 | 20 | 20 | 20 | 16.5 | > 10 | > 10 | 4 | Activity [7]: 10%; IC50 (IGROV-1): 20 µM; IC50 (NCI-H727): 20 µM
C/C=C/Cn1cc(-c2cc(OC)c(C(=O)N3CCOCC3)cc2OC)c2cc(C)[nH]c2c1=O | 2 | 2 | > 10 | 2 | > 10000 | 5.5 | 86 | 2 | 2 | 2 | 1.5 | 2 | 2 | 2 | 2 | 2 | 2 | > 10 | > 10 | > 10 | Activity [7]: 16%; IC50 (IGROV-1): 2 µM; IC50 (NCI-H727): 2 µM
